The subject of assay [1] is P-IKKα levels in L363 cells. Kind of assay: Biological Assay B: effect of compounds on P-IKKα levels in L363 cells. The note with it: Homo sapiens, L-363, averaged values, read-out: IKKα Cellular IC50. Type of assay: cell-based. A digest of the protocol:
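L363 cells pre-incubated 24 h with 1 μg/ml stock BAFF, then treated 2 h with compounds (8-point, 1:3 dilutions, 1% DMSO) at 37° C; P-IKKα in lysates measured by sandwich immunoassay. Blank (10 μM ADS125117) subtracted; IC50 from sigmoidal fit of % inhibition of MG132/BAFF control.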

Assay [2] has as its system JJN-3 cells. The assay is described as follows: Biological Assay C: antiproliferative activity on JJN-3 cells (CellTiter-Glo). In kind it is cell-based, human. The following applies: Homo sapiens, JJN-3, 72 h, 72 hr treatment; averaged values. A digest of the protocol:
(§1)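 Luminescent ATP signal (CellTiter-Glo) measures growth of myeloma cells following a 72 h compound treatment. Values for the time-zero blank are subtracted, and each mean of duplicate wells is given as percentage of the no-drug control.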
On the technique in general: ATP-based viability assays read luminescence as a measure of living cells.

Assay [3] concerns the target T1, Recombinant Human NF-kappaB-Inducing Kinase (NIK/MAP3K14) (Homo sapiens, UniProt Q99558). Kind of assay: Biological Assay A2: inhibition of auto-phosphorylation of recombinant human NIK/MAP3K14 (AlphaScreen). The following applies: auto-phosphorylation; averaged over all measurements on all batches; read-out: αscreen IC50. Type of assay: biochemical. A digest of the protocol:
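AlphaScreen readout of anti-phospho-IKK Ser176/180 signal after 1 h, 25° C. incubation of 0.2 nM GST-NIK with compound and 25 microM ATP (Tris pH 7.5 buffer, MgCl2, 1% DMSO final). IC50 from sigmoidal fit of blank-corrected % inhibition against Log10 concentration.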
Background: Alpha assays give light when donor and acceptor beads are brought close together.

The test system of assay [4] is LP-1 cells. Kind of assay: Biological Assay C: antiproliferative activity on LP-1 cells (CellTiter-Glo). In kind it is cell-based, human. The note with it: Homo sapiens, LP-1, 72 h, 72 hr treatment; averaged values. A digest of the protocol:
as §1

The subject of assay [5] is L-363 cells. The assay is described as follows: Biological Assay C: antiproliferative activity on L-363 cells (CellTiter-Glo). Type of assay: cell-based, human. The following applies: Homo sapiens, L-363, 72 h, 72 hr treatment; averaged values. A digest of the protocol: as §1
For assay [6], the target named is T1, Recombinant Human NF-kappaB-Inducing Kinase (NIK/MAP3K14). The assay is described as follows: Biological Assay A: inhibition of recombinant human NIK/MAP3K14 activity (MBP phosphorylation, Mesoscale). The following applies: averaged over all measurements on all batches; read-out: Biochemical (MSD MBP) IC50. In kind it is biochemical. A digest of the protocol: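 10 nM NIK with 25 μM ATP on MBP-coated plates in Tris pH 7.5 buffer with MgCl2, DTT and Na3VO4 and 1% DMSO, for 1 h at 25° C. Phospho-MBP was detected by anti-phospho-MBP and Sulfotag electrochemiluminescence; after blank subtraction, IC50 came from a sigmoidal fit of % inhibition.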

Each structure is given as a SMILES string. Bounds are passed on as bounds.

In general, IC50 refers to the concentration that gives 50% inhibition. Usually EC50 stands for the concentration at which the effect is half-maximal.

T1 sequence (Q99558 whole entry): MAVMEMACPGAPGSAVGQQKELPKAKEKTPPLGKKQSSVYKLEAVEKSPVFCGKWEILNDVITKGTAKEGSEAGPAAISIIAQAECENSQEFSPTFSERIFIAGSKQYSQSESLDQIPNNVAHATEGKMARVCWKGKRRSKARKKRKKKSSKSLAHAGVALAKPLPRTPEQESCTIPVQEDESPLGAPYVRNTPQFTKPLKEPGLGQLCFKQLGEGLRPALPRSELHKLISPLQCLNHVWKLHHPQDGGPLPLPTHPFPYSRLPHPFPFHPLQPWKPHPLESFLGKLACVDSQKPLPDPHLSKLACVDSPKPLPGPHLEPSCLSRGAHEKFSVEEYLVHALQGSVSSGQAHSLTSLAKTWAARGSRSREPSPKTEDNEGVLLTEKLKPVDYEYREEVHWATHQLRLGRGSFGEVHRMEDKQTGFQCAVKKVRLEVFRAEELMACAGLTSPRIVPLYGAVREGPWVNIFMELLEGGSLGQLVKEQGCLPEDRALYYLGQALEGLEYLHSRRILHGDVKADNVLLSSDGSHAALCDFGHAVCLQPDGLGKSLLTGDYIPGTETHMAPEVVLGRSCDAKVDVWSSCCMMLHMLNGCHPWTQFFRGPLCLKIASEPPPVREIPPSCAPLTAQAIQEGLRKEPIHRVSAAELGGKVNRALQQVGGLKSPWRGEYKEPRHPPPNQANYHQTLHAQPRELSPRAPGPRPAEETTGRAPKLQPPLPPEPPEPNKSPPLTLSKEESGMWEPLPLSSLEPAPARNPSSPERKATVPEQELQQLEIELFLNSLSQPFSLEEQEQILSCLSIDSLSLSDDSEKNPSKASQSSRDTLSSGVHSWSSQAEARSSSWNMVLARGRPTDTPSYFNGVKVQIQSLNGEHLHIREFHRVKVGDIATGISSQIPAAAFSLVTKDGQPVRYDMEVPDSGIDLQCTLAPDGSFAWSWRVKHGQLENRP

Take `CN1CC(n2cc(-c3nc(N)ncc3F)c3cc(C#CC(C)(C)O)ncc32)C1` [Compound 70]: the IC50 came out at 51 nM in assay [1], 130 nM in assay [3] and 28 nM in assay [6]. In addition, the EC50 in assay [2] came out at 210 nM; in assay [4] it was 3 µM; in assay [5], 120 nM.
As for `CC(C)(O)Cn1cc(-c2ccnc(N)n2)c2cc(C#CC(C)(O)C(F)(F)F)ncc21` (stereo not drawn) [Compound 111], the IC50 in assay [1] was determined as 290 nM; in assay [3], 190 nM; in assay [6], 220 nM. For the same compound, the EC50 in assay [2] stood at 640 nM; in assay [4], 7.5 µM; in assay [5], 1300 nM.
Take `Cc1cnc(N)nc1-c1c[nH]c2cnc(C#CC(C)(C)O)cc12` [Compound 112]: the IC50 is 140 nM in assay [1], 17 nM in assay [3] and 6.3 nM in assay [6]. For the same compound, the EC50 in assay [2] turned out to be 440 nM; in assay [4] it was 14 µM; in assay [5] it was 1300 nM.
As to `CC(C)(O)C#Cc1cc2c(-c3ccnc(N)n3)cn(C3CNC3)c2cn1` [Compound 113], the figures for the IC50 in assay [1], in assay [3] and in assay [6] were 660 nM, 38 nM and 52 nM, respectively. The figures for the half-maximal effective concentration (EC50) in assay [2], in assay [4] and in assay [5] were 1400 nM, 24 µM and 4600 nM, respectively.
Consider `CC(C)(O)C#Cc1cc2c(-c3ccnc(N)n3)cn(CC3CCNCC3)c2cn1` [Compound 114], for which the IC50 stood at 3800 nM in assay [1], 190 nM in assay [3] and 160 nM in assay [6]. Besides, the figures for the EC50 in assay [2], in assay [4] and in assay [5] were 1600 nM, 5.5 µM and 1500 nM, respectively.
For the compound `CC(C)(O)C#Cc1cc2c(-c3ccnc(N)n3)cn(CCN3CC(=O)NC3=O)c2cn1` [Compound 116], the IC50 was 5300 nM in assay [1], 170 nM in assay [3] and 120 nM in assay [6]. For the same compound, the EC50 in assay [2] is 5600 nM; in assay [4], more than 10 µM; in assay [5] it was 11000 nM.
For `CC(C)(O)C#Cc1cc2c(-c3ccnc(N)n3)cn(CCCN3CC(=O)NC3=O)c2cn1` [Compound 117], the IC50 was 3400 nM in assay [1], 14 nM in assay [3] and 100 nM in assay [6]. For the same compound, the EC50 in assay [2] was 3300 nM; in assay [4], more than 10 µM; in assay [5], 9000 nM.
Take `CC(C)n1cc(-c2nc(N)ncc2CCCN)c2cc(C#CC(C)(C)O)ncc21` [Compound 118]: the IC50 turned out to be 1700 nM in assay [1], 740 nM in assay [3] and 240 nM in assay [6]. Besides, the EC50 in assay [2] stood at 330 nM; in assay [4] it was 3.8 µM; in assay [5], 1600 nM.

These data come from US9643964B2, “3-(2-aminopyrimidin-4-yl)-5-(3-hydroxypropynyl)-1H-pyrrolo[2,3-C]pyridine derivatives as NIK inhibitors for the treatment of cancer” (Janssen Pharmaceutica NV, priority 2013, dated 2017).
